{"source": "patent US10695330B2", "about": "“Methods of treatment” (Global Blood Therapeutics, Inc., priority 2015, dated 2020)", "system": "activated neutrophils", "experiment": "Oxidative burst in activated neutrophils", "format": "cell-based", "details": "in vitro", "text": "Reactive oxygen species (ROS) released from activated white blood cells cause lung injury as well as fibrotic changes in patients with IPF. […] Thus, the compounds described herein could also provide a method to inhibit the adverse effects of inflammation in a patient. Reduction in systemic pro-inflammatory cytokines (tumor necrosis alpha and interleukin-6) also has the potential to exert a broad anti-inflammatory effect which would supplement the beneficial effect of alleviation of hypoxemia via increased hemoglobin-O2 affinity.", "data": [{"compound": "O=Cc1ccc(CO)o1", "note": "[Compound 5-HMF, 5-hydroxymethyl-2-furfural, reference compound]", "values": [{"measurement": "anti-oxidative activity (oxidative burst)", "value": "does not display this activity"}]}]}
